Data taken from patent US20250163119A1, “COMPOUNDS FOR THE TREATMENT OF DIABETES OR OBESITY” (Eli Lilly and Company, priority 2023, published 2025).
“And” between values parts separate entries of the source, which are not always exact repeats. Equal values may be shown once. *1 amine or outer side, *2 acyl side, *3 side chain or, on linkers, in order; H or OH if unused. Side-chain parts run from the residue outwards. [ ]: non-standard residue; d: D form. The star is where a group is joined. C20 diacid = O=C(O)CCCCCCCCCCCCCCCCCCC(=O)*; γGlu = O=C(O)[C@H](CCC(=O)[*:2])N[*:1]; εLys = N[C@@H](CCCCN[*:1])C(=O)[*:2]; αMeL = CC(C)C[C@](C)(N)C(=O)O; AEEA = NCCOCCOCC(=O)O; Aib = CC(C)(N)C(=O)O

Key:
[1] = Pharmacokinetics in Yucatan mini-pigs, single subcutaneous or intravenous dose; format: in vivo; conditions: for Tmax: read-out: Tmax
Procedure: Plasma concentrations of compounds were determined by LC/MS methods. For each assay, the compound and an internal standard (IS), were extracted from 100% mouse, rat, pig, or monkey plasma (70 μL) using Isopropanol-Methanol. Two distinct layers were formed upon centrifugation with the compound and the IS located in the supernatant layer. An aliquot of the supernatant (150 μL) was transferred to a Waters Sirocco Protein Precipitation Plate. The supernatant was eluted using a positive pressure manifold. The supernatant was mixed with 100-2 Water-Formic acid (400 μL) in a pretreated Sep-Pak tC18 SPE plate and eluted to waste. The peptide and IS were eluted with Acetonitrile-Formic acid (100 μL) in 2 steps (50 μL each step). The elution (40 μL) from SPE plate was mixed with diluent solution (1.875 μL 5× invitrosol and 3.125 μL 1% formic acid in water, 80 μL). A final sample (10 μl) was loaded onto a Xselect CSH C18 IS column (3.5 μm 2.1×20 mm). The column effluent was directed into a Thermo Fisher Scientific Orbitrap (Exploris 240) mass spectrometer for detection and quantitation.
Male Yucatan mini-pigs were administered a single subcutaneous dose or intravenous dose (19 or 99 nmol/kg) of compound in 40 mM Tris-HCl 5% D-mannitol (pH 8) at a volume of 0.01 or 0.05 mL/kg. Blood was collected from each animal at 0.083 (IV only), 0.5, 3, 6, 24, 48, 72, 96, 168, 240, 336, 408, and 504 hours postdose for pharmacokinetic characterization.

[2] = Pharmacokinetics in Sprague Dawley rats, single subcutaneous or intravenous dose (incl. 10, 30, 100 nmol/kg dose response); format: in vivo; conditions: for Tmax: read-out: Tmax
[3] = male Yucatan pigs, single subcutaneous dose 19 nmol/kg, individual animal
[4] = male, Yucatan mini-pig, minipig, plasma, iv, 19 nmol/kg, single intravenous dose 19 nmol/kg, individual animal
[5] = male, Yucatan mini-pig, minipig, plasma, iv, 19 nmol/kg, single intravenous dose 19 nmol/kg, mean
[6] = male, Yucatan mini-pig, minipig, plasma, sc, 19 nmol/kg, single subcutaneous dose 19 nmol/kg, Mean
[7] = male, Yucatan mini-pig, minipig, plasma, sc, 19 nmol/kg, single subcutaneous dose 19 nmol/kg, individual animal
[8] = single intravenous dose 19 nmol/kg, male Yucatan pigs, individual animal
[9] = dose response, single subcutaneous dose 10 nmol/kg, male Sprague Dawley rats, individual animal
[10] = dose response, single subcutaneous dose 30 nmol/kg, male Sprague Dawley rats, individual animal
[11] = dose response, single subcutaneous dose 100 nmol/kg, male Sprague Dawley rats, individual animal
[12] = male Sprague Dawley rats, single intravenous dose 187 nmol/kg, individual animal
[13] = male, Sprague Dawley, rat, plasma, iv, 187 nmol/kg, single intravenous dose 187 nmol/kg, Mean
[14] = male, Sprague Dawley, rat, plasma, sc, 10 nmol/kg, dose response, single subcutaneous dose 10 nmol/kg, individual animal
[15] = male, Sprague Dawley, rat, plasma, sc, 10 nmol/kg, dose response, single subcutaneous dose 10 nmol/kg, mean
[16] = male, Sprague Dawley, rat, plasma, sc, 30 nmol/kg, dose response, single subcutaneous dose 30 nmol/kg, individual animal
[17] = male, Sprague Dawley, rat, plasma, sc, 30 nmol/kg, dose response, single subcutaneous dose 30 nmol/kg, mean
[18] = male, Sprague Dawley, rat, plasma, sc, 100 nmol/kg, dose response, single subcutaneous dose 100 nmol/kg, individual animal
[19] = male, Sprague Dawley, rat, plasma, sc, 100 nmol/kg, dose response, single subcutaneous dose 100 nmol/kg, mean
[20] = male, Sprague Dawley, rat, plasma, sc, 187 nmol/kg, single subcutaneous dose 187 nmol/kg, individual animal
[21] = male, Sprague Dawley, rat, plasma, sc, 187 nmol/kg, single subcutaneous dose 187 nmol/kg, mean
[22] = single subcutaneous dose 187 nmol/kg, male Sprague Dawley rats, individual animal

**Q.** What does the source list for “Ac-GSPSIVTS[αMeL]DVPT[Aib][αMeL]LQKILEQERAEKARQQAK([γGlu-AEEA-εLys-C20 diacid])EAAEILAQV-NH2 [SEQ ID NO: 1, Ac-GSPSIVTS αMeL DVPT Aib αMeL LQKILEQERAEKARQQAK(γE-(2-[2-(2-Amino-ethoxy)-ethoxy]-acetyl)-ϵK-CO-(CH2)18-CO2H)EAAEILAQV-NH2]”?
**A.** AUC0-inf ([1]; Yucatan mini-pig, minipig, plasma, sc, male Yucatan pigs, single subcutaneous dose 19 nmol/kg, Mean, read-out: AUC0-inf): 17.8 µM·h; Cmax ([1]; Yucatan mini-pig, minipig, plasma, sc, male Yucatan pigs, single subcutaneous dose 19 nmol/kg, Mean, read-out: Cmax): 147 nM; AUC0-inf [1, 3]: 22.4 µM·h and 13.1 µM·h; CL/F [1, 3]: 1.46 mL/h/kg; Cmax [1, 3]: 171 nM and 122 nM; T1/2 [1, 3]: 60.2 h; clearance [1, 4]: 0.583 mL/h/kg; half-life [1, 4]: 87 h; clearance [1, 5]: 0.755 mL/h/kg; half-life [1, 5]: 71.5 h; half-life [1, 6]: 75.9 h; CL/F ([1]; male, Yucatan mini-pig, minipig, plasma, sc, 19 nmol/kg, single subcutaneous dose 19 nmol/kg, Mean, read-out: CL/F (converted)): 1.15 mL/h/kg; Tmax [1, 6]: 6 h; half-life [1, 7]: 91.6 h; CL/F ([1]; male, Yucatan mini-pig, minipig, plasma, sc, 19 nmol/kg, single subcutaneous dose 19 nmol/kg, individual animal, read-out: CL/F (converted)): 0.848 mL/h/kg; Tmax [1, 7]: 6 h; AUC0-inf ([1]; minipig, plasma, single intravenous dose 19 nmol/kg, male Yucatan pigs, mean, read-out: AUC0-inf): 26.2 µM·h; C0 ([1]; minipig, plasma, single intravenous dose 19 nmol/kg, male Yucatan pigs, mean, read-out: C0): 619 nM; AUC0-inf [1, 8]: 32.1 µM·h and 20.2 µM·h; C0 [1, 8]: 591 nM and 646 nM; CL [1, 8]: 0.927 mL/h/kg; T1/2 [1, 8]: 55.9 h; AUC0-inf [2, 9]: 2.07 µM·h and 1.86 µM·h and 2.21 µM·h; CL/F [2, 9]: 6.10 mL/h/kg and 4.63 mL/h/kg; Cmax [2, 9]: 37.7 nM and 26.4 nM and 38.5 nM; T1/2 [2, 9]: 41.7 h and 31.1 h; AUC0-inf [2, 10]: 6.42 µM·h and 6.92 µM·h and 7.69 µM·h; CL/F [2, 10]: 4.55 mL/h/kg and 4.19 mL/h/kg; Cmax [2, 10]: 102 nM and 110 nM and 104 nM; T1/2 [2, 10]: 37.1 h and 36.1 h; AUC0-inf [2, 11]: 18.8 µM·h and 21.1 µM·h and 20.7 µM·h; CL/F [2, 11]: 4.86 mL/h/kg and 4.91 mL/h/kg; Cmax [2, 11]: 348 nM and 332 nM and 321 nM; T1/2 [2, 11]: 26.0 h and 24.6 h; AUC0-inf [2, 12]: 111 µM·h and 91.9 µM·h and 77.3 µM·h; C0 [2, 12]: 5970 nM and 6950 nM and 2400 nM; CL [2, 12]: 2.04 mL/h/kg and 2.42 mL/h/kg; T1/2 [2, 12]: 47.5 h and 23.2 h and 31.0 h; clearance [2, 13]: 2.05 mL/h/kg; half-life [2, 13]: 33.9 h; clearance ([2]; male, Sprague Dawley, rat, plasma, iv, 187 nmol/kg, single intravenous dose 187 nmol/kg, individual animal): 1.69 mL/h/kg; half-life [2, 14]: 26 h; CL/F ([2]; male, Sprague Dawley, rat, plasma, sc, 10 nmol/kg, dose response, single subcutaneous dose 10 nmol/kg, individual animal, read-out: CL/F (converted)): 5.1 mL/h/kg; Tmax [2, 14]: 24 h; half-life [2, 15]: 32.9 h; CL/F ([2]; male, Sprague Dawley, rat, plasma, sc, 10 nmol/kg, dose response, single subcutaneous dose 10 nmol/kg, mean, read-out: CL/F (converted)): 5.28 mL/h/kg; Tmax [2, 15]: 24 h; half-life [2, 16]: 31.5 h; CL/F ([2]; male, Sprague Dawley, rat, plasma, sc, 30 nmol/kg, dose response, single subcutaneous dose 30 nmol/kg, individual animal, read-out: CL/F (converted)): 4.8 mL/h/kg; Tmax [2, 16]: 24 h; half-life [2, 17]: 34.9 h; CL/F ([2]; male, Sprague Dawley, rat, plasma, sc, 30 nmol/kg, dose response, single subcutaneous dose 30 nmol/kg, mean, read-out: CL/F (converted)): 4.51 mL/h/kg; Tmax [2, 17]: 32 h; half-life [2, 18]: 30.8 h; CL/F ([2]; male, Sprague Dawley, rat, plasma, sc, 100 nmol/kg, dose response, single subcutaneous dose 100 nmol/kg, individual animal, read-out: CL/F (converted)): 5.46 mL/h/kg; Tmax [2, 18]: 24 h; half-life [2, 19]: 27.1 h; CL/F ([2]; male, Sprague Dawley, rat, plasma, sc, 100 nmol/kg, dose response, single subcutaneous dose 100 nmol/kg, mean, read-out: CL/F (converted)): 5.08 mL/h/kg; Tmax [2, 19]: 24 h; half-life [2, 20]: 37.7 h; CL/F ([2]; male, Sprague Dawley, rat, plasma, sc, 187 nmol/kg, single subcutaneous dose 187 nmol/kg, individual animal, read-out: CL/F (converted)): 3.67 mL/h/kg; Tmax [2, 20]: 24 h; half-life [2, 21]: 35.7 h; CL/F ([2]; male, Sprague Dawley, rat, plasma, sc, 187 nmol/kg, single subcutaneous dose 187 nmol/kg, mean, read-out: CL/F (converted)): 4.07 mL/h/kg; Tmax [2, 21]: 24 h; AUC0-inf ([2]; rat, plasma, sc, dose response, single subcutaneous dose 10 nmol/kg, male Sprague Dawley rats, mean, read-out: AUC0-inf): 2.05 µM·h; Cmax ([2]; rat, plasma, sc, dose response, single subcutaneous dose 10 nmol/kg, male Sprague Dawley rats, mean, read-out: Cmax): 34.2 nM; AUC0-inf ([2]; rat, plasma, sc, dose response, single subcutaneous dose 30 nmol/kg, male Sprague Dawley rats, mean, read-out: AUC0-inf): 7.01 µM·h; Cmax ([2]; rat, plasma, sc, dose response, single subcutaneous dose 30 nmol/kg, male Sprague Dawley rats, mean, read-out: Cmax): 105 nM; AUC0-inf ([2]; rat, plasma, sc, dose response, single subcutaneous dose 100 nmol/kg, male Sprague Dawley rats, mean, read-out: AUC0-inf): 20.2 µM·h; Cmax ([2]; rat, plasma, sc, dose response, single subcutaneous dose 100 nmol/kg, male Sprague Dawley rats, mean, read-out: Cmax): 334 nM; AUC0-inf ([2]; rat, plasma, sc, single subcutaneous dose 187 nmol/kg, male Sprague Dawley rats, mean, read-out: AUC0-inf): 49 µM·h; Cmax ([2]; rat, plasma, sc, single subcutaneous dose 187 nmol/kg, male Sprague Dawley rats, mean, read-out: Cmax): 657 nM; AUC0-inf ([2]; rat, plasma, male Sprague Dawley rats, single intravenous dose 187 nmol/kg, Mean, read-out: AUC0-inf): 93.4 µM·h; C0 ([2]; rat, plasma, male Sprague Dawley rats, single intravenous dose 187 nmol/kg, Mean, read-out: C0): 5110 nM; AUC0-inf [2, 22]: 53.9 µM·h and 41.2 µM·h and 51.8 µM·h; CL/F [2, 22]: 4.77 mL/h/kg and 3.77 mL/h/kg; Cmax [2, 22]: 804 nM and 511 nM and 657 nM; T1/2 [2, 22]: 38.2 h and 31.2 h
